Measurements from patent US20250000850A1, “COMPOSITION USED TO PREVENT OR SUPPRESS REFEEDING SYNDROME” (OTSUKA PHARMACEUTICAL FACTORY, INC., priority 2021, published 2025).

Experiment: Effect of rapamycin on blood phosphorus concentration after refeeding to protein-undernourished rats
Type: in vivo, male Wistar rats
Settings: rapamycin 2 mg/mL at 0.75 mL/kg i.p., mean ± SD, n=8
Protocol: Using male Wistar rats (7 weeks old at time of purchase; Charles River Laboratories Japan, Inc.), a group of rats fed with a purified diet having a protein content of 2.5% (referred to below as “low-protein diet”) for at least 3 weeks, and a group of rats fed with a purified diet having a protein content of 20% (referred to below as “normal diet”) for at least 3 weeks were prepared. […] Each animal had access to tap water ad libitum for at least 3 weeks. After fasting with ad libitum access to water for 24 hours, jugular vein catheterization was performed under isoflurane anesthesia, and the other end of the catheter was passed under the skin, exited from the back, and connected to a syringe containing physiological saline via a harness. The rats were then kept in individual metabolic cages with the catheter being open. Post-operatively, an antibiotic (ampicillin) was injected intramuscularly at a dose of 5 mg/100 μL/rat. After recovery from anesthesia, blood (400 μL) was collected from the catheter placed in the jugular vein, then injected into a tube containing sodium heparin, and stored on ice. The blood was promptly fractionated to obtain plasma, and the inorganic phosphorus concentration in the plasma was promptly measured using a Fuji Dry Chem Slide (produced by Fuji Film Corporation). The rats were grouped into predetermined groups using the obtained measurements and body weight data as indices.
The physiological saline was replaced with a nutrient infusion preparation or an electrolyte preparation at 5 p.m. to start administration to the animals. The nutrient infusion preparation used was Elneopa-NF No. 2 infusion (produced by Otsuka Pharmaceutical Factory Co., Ltd.). The electrolyte formulation used was an electrolyte infusion preparation composed of the electrolyte contained in Elneopa-NF No. 2 infusion. […] Immediately before administering these preparations, either a solvent (dimethyl sulfoxide, produced by Fujifilm Wako Pure Chemicals Corporation; referred to below as “DMSO”) or a solution of 2 mg/mL of rapamycin (produced by Tokyo Chemical Industry Co., Ltd.) whose side effect of inhibiting muscle synthesis was known was intraperitoneally administered by bolus at a dose of 0.75 mL/kg in each case. […]
Starting at 9 a.m. on the day after the start of administration, blood was collected from the abdominal aorta by using a syringe under isoflurane anesthesia. […] The concentration of inorganic phosphorus in the plasma was determined by an enzymatic method (Determiner L, produced by Hitachi Chemical Diagnostics Systems Co., Ltd.).

## CO[C@H]1C[C@@H]2CC[C@@H](C)[C@@](O)(O2)C(=O)C(=O)N2CCCC[C@H]2C(=O)O[C@H]([C@H](C)C[C@@H]2CC[C@@H](O)[C@H](OC)C2)CC(=O)[C@H](C)/C=C(\C)[C@@H](O)[C@@H](OC)C(=O)[C@H](C)C[C@H](C)/C=C/C=C/C=C/1C [rapamycin]
LPD (electrolyte + rapamycin): low-protein diet rats, electrolyte infusion 16 h
  Plasma phosphorus concentration after administration: 6.1 ± 0.6 mg/dL
LPD (refeeding + rapamycin): low-protein diet rats, nutrient infusion 16 h
  Plasma phosphorus concentration after administration: 4.2 ± 0.4 mg/dL
NPD (electrolyte + rapamycin): normal diet rats, electrolyte infusion 16 h
  Plasma phosphorus concentration after administration: 6.4 ± 0.4 mg/dL
NPD (refeeding + rapamycin): normal diet rats, nutrient infusion 16 h
  Plasma phosphorus concentration after administration: 4.7 ± 0.4 mg/dL
